Test results as given in article PMC7923628 (Proceedings of the National Academy of Sciences of the …, 2021).
Values belong to the compound of their own block, whether it stands above or below them.

Legend:
p27 = assay: Immunoblot of CRL1/SCF^Skp2 substrate p27 in MV4-11 cells; format: cell-based, human
E3 ROC1–CUL1 CTD = E3 ROC1–CUL1 CTD (Homo sapiens, UniProt Q13616); assay: FRET K48 di-Ub synthesis with ROC1–CUL1 CTD; format: biochemical; conditions: for blocking ubiquitination (in words): Table S2
Chain of E3 ROC1–CUL1 CTD (Q13616 411-776): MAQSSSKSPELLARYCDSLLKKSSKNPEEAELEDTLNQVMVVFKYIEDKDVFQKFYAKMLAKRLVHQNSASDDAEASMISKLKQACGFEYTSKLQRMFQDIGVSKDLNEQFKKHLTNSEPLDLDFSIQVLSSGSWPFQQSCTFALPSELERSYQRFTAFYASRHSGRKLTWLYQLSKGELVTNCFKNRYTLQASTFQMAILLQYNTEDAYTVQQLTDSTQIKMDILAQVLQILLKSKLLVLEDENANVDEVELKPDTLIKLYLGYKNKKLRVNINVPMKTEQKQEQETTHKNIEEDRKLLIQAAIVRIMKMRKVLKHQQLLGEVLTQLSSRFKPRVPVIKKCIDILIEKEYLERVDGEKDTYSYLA
Chain of E3 ROC1–CUL1 CTD (P62877 whole entry partner): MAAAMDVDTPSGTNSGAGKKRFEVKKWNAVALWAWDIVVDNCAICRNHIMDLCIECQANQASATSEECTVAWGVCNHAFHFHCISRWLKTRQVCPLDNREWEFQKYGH

E3 ROC1–CUL1 CTD complex = E3 ROC1–CUL1 CTD complex (Homo sapiens, UniProt Q13616); assay: MST ligand binding to ROC1–CUL1 CTD; conditions: Table S2
Chain of E3 ROC1–CUL1 CTD complex (Q13616 411-776): as the sequence (Q13616 411-776) above
Chain of E3 ROC1–CUL1 CTD complex (P62877 whole entry partner): as the sequence (P62877 whole entry partner) above

MV4-11 tumors = assay: AML MV4-11 subcutaneous xenograft in mice; format: in vivo, mouse; conditions: G5, 3 mg/kg, oral, QD

SMILES: NS(=O)(=O)OC[C@@H]1C[C@@H](n2ccc3c(N[C@H]4CCc5ccccc54)ncnc32)C[C@@H]1O [MLN4924]
effect on p27 level (p27): stabilized

drop in IC50 (E3 ROC1–CUL1 CTD; compared with 33): sevenfold
SMILES: Cc1oc2c(O)c(O)ccc2c(=O)c1Oc1ccccc1 [33-2, 7,8-dihydroxy-2-methyl-3-phenoxy-4H-chromen-4-one]

E3 binding (in words) (E3 ROC1–CUL1 CTD complex): completely inactive
blocking ubiquitination (in words) (E3 ROC1–CUL1 CTD): completely inactive
SMILES: COc1ccc2c(=O)c(Oc3ccccc3)c(C)oc2c1OC [33-3, 7,8-dimethoxy-2-methyl-3-phenoxy-4H-chromen-4-one]

SMILES: CNC(=O)c1cc(Oc2ccc(NC(=O)Nc3ccc(Cl)c(C(F)(F)F)c3)cc2)ccn1 [sorafenib]
tumor inhibition (MV4-11 tumors): 46.02%

blocking ubiquitination (in words) (E3 ROC1–CUL1 CTD): inactive
SMILES: O=c1c(Oc2ccccc2)c(C(F)(F)F)oc2cc(O)ccc12 [33-7, 7-hydroxy-3-phenoxy-2-(trifluoromethyl)-4H-chromen-4-one]
